Experimental data: US20180207094A1, “IMPROVED TOPICAL KETOPROFEN FORMULATIONS” (Elliptical Therapeutics, LLC, priority 2015, published 2018)

Columns and labels:
[1] = reported; cited from earlier work
[2] = tested on: New Zealand rabbits; settings: rabbit, in vivo

SMILES: C[C@H](C(=O)O)c1cccc(C(=O)c2ccccc2)c1 (single isomer, unassigned) [S-enantiomer]
- potency relative to the racemate [1]: approximately twice as potent as the racemate

SMILES: CCCCCCCCCCCCOS(=O)(=O)[O-].[Na+] [SDS 5%, sodium dodecyl sulfate]
- Overall Edema Score [2]: 0.60
- Overall Erythema Score [2]: 0.20

SMILES: C[C@@H](C(=O)O)c1cccc(C(=O)c2ccccc2)c1 (single isomer, unassigned) [R-enantiomer]
- anti-inflammatory and antipyretic activities [1]: little or no
